Measurements from the NIST ThermoML archive (doi:10.1021/acs.jced.7b00768).
Numbers after ± are expanded uncertainties.

Legend:
[1] = Crystal; DSC
[2] = Molar enthalpy of transition or fusion; conditions: Crystal; DSC

- Triple point temperature [1]: 412.2 ± 0.8 K
- Molar enthalpy of transition or fusion [2]: 51.2 ± 1.4 kJ/mol
SMILES: C[N+](C)(C)C[C@H](O)CC(=O)[O-].O=C(O)/C=C/C(=O)O [L-carnitine fumarate]
